Test results: US5763212A, “Inhibiting degradation of a degron-bearing protein” (California Institute of Technology, priority 1995, dated 1998)
Residues, ends and D or L forms follow the SMILES beside them.

System: Arg-e^K-DHFRha (mouse dihydrofolate reductase with e^K extension and ha epitope, from Ub-Arg-e^K-DHFRha)
Assay: Degradation of 35S-labeled N-end rule substrate in ATP-supplemented reticulocyte extract (acid-soluble 35S, SDS-PAGE)
Type: biochemical
Settings: for inhibition of Arg-e^K-DHFRha degradation: FIG. 3A

| inhibition of Arg-e^K-DHFRha degradation (1 mM Arg-Ala dipeptide, reticulocyte extract) | effect on ubiquitination of Arg-e^K-DHFRha (1 mM Arg-Ala dipeptide, reticulocyte extract, SDS-PAGE) | inhibition of Arg-e^K-DHFRha degradation (20 μM methotrexate, ATP-supplemented reticulocyte extract, 37° C.) | effect on multiubiquitination of Arg-e^K-DHFRha (20 μM methotrexate, ATP-supplemented reticulocyte extract, SDS-PAGE) | SMILES |
| --- | --- | --- | --- | --- |
| almost completely inhibited | inhibited |  |  | C[C@H](NC(=O)[C@@H](N)CCCNC(=N)N)C(=O)O [Arg-Ala] (H-Arg-Ala-OH) |
|  |  | nearly complete inhibition | enhanced | CN(Cc1cnc2nc(N)nc(N)c2n1)c1ccc(C(=O)N[C@@H](CCC(=O)O)C(=O)O)cc1 [methotrexate] |
